Assay results taken from US6579720B1, “Method for activity profiling compound mixtures” (BDC Pharma LLC, priority 1999, dated 2003).

Key:
[1] = IAM chromatography, normalized capacity factor on esterIAM.PC C10/C3; assay type: physicochemical; conditions: 15% acetonitrile + 85% 0.03 M NH4OAc buffer pH 7.4, 1 mL/min
Excerpt: (§1) The preferred, if not only surfaces capable of measuring membrane binding constants so far are from a group of immobilized artificial membranes (IAMs). IAMs consist of a monolayer of phospholipids covalently immobilized to a silica surface. Five types of IAM surfaces are typically used: phosphatidylcholine (PC), phosphatidylethanolamine (PE), phosphatidylserine (PS), sphingomyelin (SM), and cholesterol (CL). These IAM silica surfaces are used as the stationary phase in high performance liquid chromatography (HPLC). The IAM columns can be run in parallel with one single MS detection system (multi-column LC/MS) or successively using a one-column LC/MS instrument.
(§2) Dimensions of the columns: 3.0×0.46 cm.
(§3) Wavelength of the UV detector: 220 nm.
(§4) Mobile phase composition: 15% of acetonitrile+85% of 0.03 M NH4OAc buffer (pH 7.4).
(§5) All five compounds were chromatographed on ^esterIAM.PC^C10/C3, ^esterIAM.PE^C10/C3, ^esterIAM.PS^C10/C3, IAM.SM^C10/C3 using the experimental conditions described above. A representative set of normalized capacity factor values (αk′) of these drugs are presented in Table 6 [It should be noted that these values are very much dependent on packing material quality and density, as well as mobile phase composition (particularly the pH). Thus these values are not absolute and may vary from column to column within the same column type].

[2] = IAM chromatography, normalized capacity factor on esterIAM.PS C10/C3; assay type: physicochemical; conditions: 15% acetonitrile + 85% 0.03 M NH4OAc buffer pH 7.4, 1 mL/min
Excerpt: as §1, §2, §3, §4, §5

[3] = IAM chromatography, normalized capacity factor on esterIAM.PE C10/C3; assay type: physicochemical; conditions: 15% acetonitrile + 85% 0.03 M NH4OAc buffer pH 7.4, 1 mL/min
Excerpt: as §1, §2, §3, §4, §5

[4] = IAM chromatography, normalized capacity factor on IAM.SM C10/C3; assay type: physicochemical; conditions: 15% acetonitrile + 85% 0.03 M NH4OAc buffer pH 7.4, 1 mL/min
Excerpt: as §1, §2, §3, §4, §5

[5] = system: antibody of the Benzodiazepines ELISA (specific for compounds belonging to the Benzodiazepine family); assay: Benzodiazepine ELISA (Neogen competitive ELISA test kit); assay type: binding; conditions: experiment C, 7-drug mixture; ELISA fingerprint compared with chromatographic fingerprints
Excerpt: (§6) ELISA test kits were purchased from Neogen Corporation, Lexington, Ky. […] Structural features that typically produce a positive response for each of these assays are described on FIG. 11.
(§7) ELISA is a method of analysis that relies on specific interactions between antibodies and antigens to detect a variety of substances. The assay (Neogen) operates on the basis of competition between the horseradish peroxidase (HRP) enzyme conjugate and the analyte in the sample for specific binding sites on the precoated antibody microplate. The test kits used for the experiment are 96-well plates precoated with a specific antibody. As described in FIG. 12, the sample or standard solution is first added to the precoated antibody microplate. Next, the diluted enzyme conjugate is added and the mixture is shaken and then incubated at room temperature for one hour. During incubation, competition for binding sites on the microplate is taking place. The plate is then washed removing all unbound material. The bound enzyme conjugate is detected by the addition of a tetramethylbenzidine (TMB) based substrate which generates an optimal color after 30 minutes. […] The extent of color development is inversely proportional to the amount of analyte in the sample or standard. […] Typically, the sensitivity of the selected ELISA assays ranges from ˜0.1 to 20-30 ng/mL depending on the substrate. […]

tricyclic antibody = assay: Tricyclic ELISA (Neogen competitive ELISA test kit); assay type: binding; conditions: experiment C, 7-drug mixture; ELISA fingerprint compared with chromatographic fingerprints
Excerpt: as §6, §7

[6] = system: antibody of the Haloperidol ELISA (specific for Haloperidol); assay: Haloperidol ELISA (Neogen competitive ELISA test kit); assay type: binding
Excerpt: as §6, §7

Molecule	IAM.PC (αk′) [1]	IAM.PS (αk′) [2]	IAM.PE (αk′) [3]	IAM.SM (αk′) [4]	Benzodiazepine ELISA activity assigned to compound [5]	Tricyclic ELISA activity assigned to compound (tricyclic antibody)	Haloperidol ELISA activity assigned to compound ([6]; experiment B, 70-drug mixture, activity profile compared with chromatographic fingerprints)	Haloperidol ELISA activity assigned to compound ([6]; experiment C, 7-drug mixture, ELISA fingerprint compared with chromatographic fingerprints)
COc1cc(CCN)cc(OC)c1OC [Mescaline]	0.62	11.39	1.95	0.49	–	–	–	–
Olazoline	0.52	4.72	1.19	0.49	–	–	–	–
CCN(CC)C(=O)c1cccnc1 [Nikethamide]	0.33	0.61	1.55	0.30	–	–	–	–
Cc1cn([C@H]2C[C@H](N=[N+]=[N-])[C@@H](CO)O2)c(=O)[nH]c1=O [AZT]	0.36	0.36	0.76	0.26	–	–	–	–
CN1C(=O)CN=C(c2ccccc2)c2cc(Cl)ccc21 [Diazepam]	–	–	–	–	detected by the Benzodiazepine ELISA assay	–	–	–
CCn1cc(C(=O)O)c(=O)c2cc(F)c(N3CCNCC3)cc21 [Norfloxacin]	0.64	8.09	1.31	2.09	–	–	–	–
CN1CCCN=C1COC(=O)C(O)(c1ccccc1)C1CCCCC1 (stereo not drawn) [Oxyphencyclimine]	–	–	–	–	–	detected	–	–
O=C(CCCN1CCC(O)(c2ccc(Cl)cc2)CC1)c1ccc(F)cc1 [Haloperidol]	–	–	–	–	–	–	activity should be assigned to Haloperidol	only matches the chromatographic fingerprint of Haloperidol
